The values below come from patent US7700559B2, “Gonadotropin releasing hormone analogues conjugates with steroid hormones” (Medical Research Council, priority 2003, dated 2010).

SMILES strings stand for the structures.

In general, IC50 refers to the concentration that gives 50% inhibition.

One series addresses T1, rat type I GnRHR (Rattus norvegicus, UniProt P30969).
T1 construct: expressed in transfected cells
T1 sequence (P30969 1-327): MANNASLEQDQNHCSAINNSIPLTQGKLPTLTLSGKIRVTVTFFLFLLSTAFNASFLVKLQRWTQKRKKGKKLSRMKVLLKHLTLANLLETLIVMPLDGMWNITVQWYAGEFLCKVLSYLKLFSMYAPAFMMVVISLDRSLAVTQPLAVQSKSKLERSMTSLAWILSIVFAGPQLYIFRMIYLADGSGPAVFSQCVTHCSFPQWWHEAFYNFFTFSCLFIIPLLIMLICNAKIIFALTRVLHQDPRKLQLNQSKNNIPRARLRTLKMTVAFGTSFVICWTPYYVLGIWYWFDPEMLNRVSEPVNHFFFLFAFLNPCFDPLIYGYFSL
Nature of the series: Total inositol phosphate production in HEK293 cells stably expressing rat type I GnRHR. It counts as cell-based. The conditions noted are these: n=2, read-out: EC50, stimulation of inositol phosphate production. The method, then: A HEK293 stable cell line expressing the rat type I GnRHR developed in our laboratory was used for the inositol phosphate production assays. This cell line was maintained in DMEM containing 10% fetal calf serum, glutamine and penicillin/streptomycin with the addition of G418 at 500 μg/ml throughout culture. Where required, plates were coated with Poly-L-Lysine to enhance adherence to plasticware during assay.
Measurement of Total Inositol Phosphate Production
Rat type I GnRH receptive expressing HEK293 cells were plated out onto 12 well plates and incubated at 37° C., 5% CO2 for 24 hours, then incubated in special DMEM containing 1% dialysed FCS (with glutamine and penicillin/streptomycin) and 1 μl/well of myo-[2-^3H]inositol for a further 48 hours. After aspiration of media and washing with incubation buffer, a further 500 μl buffer containing 10 mM LiCl was added to the plates and then incubated at 37° C. for 30 mins. 1 μM agonist was added to each well to a final concentration of 0.1 μM and the plates were incubated under the same conditions for a further 1 hour. The reaction was terminated with 500 μl 10 mM formic acid, incubated at 4° C. for 30 mins. […] After addition of formic acid, ammonium formate (1 ml, 0.1M, 1M) and vortexing, 800 μl of the supernatant was counted with scintillation fluid.

In series [1] the target is progesterone binding globulin (PBG). Put plainly: Plasma protein binding assay, competition with [3H]progesterone in pregnant guinea pig plasma. The conditions noted are these: read-out: IC50, inhibition of [3H]progesterone binding to PBG. The method, then:
(§1) Plasma Protein Binding Assay
(§2) Plasma protein binding was determined by the competitive binding of steroid conjugates, in the presence of [1,2,6,7-^3H]progesterone or [^3H]cortisol, to pregnant guinea pig plasma or human pregnant serum respectively. 20 μl serum was diluted with 2 ml dextran-coated charcoal solution (0.25 g dextran T-70, 2.5 g charcoal decolorizing powder, activated acid washed [Merck Ltd., Lutterworth, Leicestershire] in 500 ml PBS) and incubated at room temperature. After 30 mins the suspension was centrifuged at 3000×g for 10 minutes, the supernatant was removed and the pellet was discarded. 100 μl of diluted serum was aliquoted into centrifuge tubes, followed by 1 pmol[^3H]steroid/100 μl PBS. 100 μl PBS (total binding) or 200 pmol/100 μl unlabelled competing ligand ([…]) was added to diluted serum in duplicate. Tubes were vortexed and incubated at room temperature for 1 hour, then for an additional 15 minutes on ice. A further 750 μl dextran-coated charcoal suspension was added and incubated for 10 minutes on ice, followed by centrifugation at 4° C. for 5 minutes. The supernatant fluid was counted.

Series [2] addresses T2, cortisol binding globulin (CBG) (Homo sapiens, UniProt P08185).
T2 construct: from tissue; host or cells: human pregnant serum (charcoal-stripped, diluted)
T2 sequence (P08185 23-405): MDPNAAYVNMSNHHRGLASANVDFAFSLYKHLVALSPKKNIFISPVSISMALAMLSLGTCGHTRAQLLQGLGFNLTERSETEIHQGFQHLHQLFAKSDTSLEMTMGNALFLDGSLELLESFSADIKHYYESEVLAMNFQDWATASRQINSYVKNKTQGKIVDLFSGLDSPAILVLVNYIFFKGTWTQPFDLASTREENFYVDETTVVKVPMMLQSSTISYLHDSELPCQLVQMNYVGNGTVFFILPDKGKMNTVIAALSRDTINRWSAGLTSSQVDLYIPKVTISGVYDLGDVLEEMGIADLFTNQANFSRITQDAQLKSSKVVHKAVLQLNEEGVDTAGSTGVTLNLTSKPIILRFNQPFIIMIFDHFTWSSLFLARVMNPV
Put plainly: Plasma protein binding assay, competition with [3H]cortisol in human pregnant serum. The conditions noted are these: data not shown, read-out: IC50, prevention of [3H]cortisol binding. As for the experimental part: as §1, §2

Series [3] in a line: In vivo male rabbit study, disappearance of iodinated analogue from whole blood. The conditions noted are these: iodinated compound i.v. into ear vein, male rabbit, whole blood. As for the experimental part:
In Vivo Studies in the Male Rabbit
To determine biological half-life of GnRH agonist-progesterone conjugates, 0.5 ml saline containing approximately 10,000,000 cpm of iodinated [D-Ala^6]GnRH or [D-Lys^6]GnRH-progesterone conjugate was injected as an i.v. bolus into the ear vein of a male rabbit. Rabbits were sedated with 0.4 ml Aceprom 10 (Milborrow Animal Health, Republic of South Africa) injected intramuscularly 3-4 minutes before start of experiment. A repeat injection was carried out after 2 hours. 1 ml blood samples were collected in heparinized tubes from an indwelling cannula placed in a vein of the contralateral ear. Whole blood was counted directly to determine disappearance from circulation. All experiments were carried out in accordance with Republic of South Africa regulations.

Series [4] concerns the target T3, type I human GnRH receptor (Homo sapiens, UniProt P30968).
T3 construct: expressed in transfected cells; host or cells: COS-1 cells (membranes)
T3 sequence (P30968 1-328): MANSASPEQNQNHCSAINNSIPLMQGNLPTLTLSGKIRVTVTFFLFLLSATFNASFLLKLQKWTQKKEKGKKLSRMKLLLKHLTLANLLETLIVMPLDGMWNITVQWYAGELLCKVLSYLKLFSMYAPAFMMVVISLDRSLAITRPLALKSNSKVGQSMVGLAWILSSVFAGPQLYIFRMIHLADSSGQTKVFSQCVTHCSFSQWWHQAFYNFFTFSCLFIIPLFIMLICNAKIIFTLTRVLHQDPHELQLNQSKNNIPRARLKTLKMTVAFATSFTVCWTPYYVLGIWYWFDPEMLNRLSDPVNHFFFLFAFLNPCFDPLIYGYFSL
Nature of the series: Membrane binding assay of GnRH agonist-progesterone conjugate, COS-1 cells transfected with hGnRH-R, 125I[His5,D-Tyr6]GnRH. The conditions noted are these: n=1, data not shown, read-out: ED50, binding to type I human GnRH receptor. The method, then: Membrane binding assay of GnRH agonist-progesterone conjugates was carried out on COS-1 cells transfected with hGnRH-R. COS-1 cells in 100 mm dishes were washed twice in HEPES modified DMEM and transfected with 15 μg DNA in filter-sterilised DEAE dextran with HEPES buffered saline, penicillin/streptomycin and DMEM. After five hours incubation at 37° C., the media was removed and replaced with DMEM containing penicillin/streptomycin, 2% FCS and 2% chloroquine 10 mM and plates were incubated for a further one hour. The media was aspirated, cells were washed and normal media was added until assay 24 hours later.
Membrane Binding Assay of GnRH agonist-Progesterone Conjugate:
Transfected COS-1 cells were washed in PBS, removed from plates and centrifuged at 1500 rpm for five mins to pellet cells. The PBS was aspirated and the cells were resuspended in homogenization buffer (20 mM Tris, 2 mM MgCl2, pH 7.2), vortexed and left on ice for 10 minutes. The cell suspension was transferred to a 7 ml homogeniser (Jencons (Scientific) Ltd., Leighton Buzzard, Buckinghamshire) and plunged 15 times with a loose plunger and 15 times with a tight plunger. The homogenized cells were then centrifuged at 4° C. for 10 mins at top speed and the supernatant was removed with a vacuum pump. […] Filters were then counted immediately on a gamma counter.

On to `CC(=O)[C@H]1CC[C@H]2[C@@H]3CCC4=CC(=O)CC[C@]4(C)[C@H]3[C@H](OC(=O)CCC(=O)NCCCC[C@@H](NC(=O)[C@H](Cc3ccc(O)cc3)NC(=O)[C@H](CO)NC(=O)[C@H](Cc3c[nH]c4ccccc34)NC(=O)[C@H](Cc3c[nH]cn3)NC(=O)[C@@H]3CCC(=O)N3)C(=O)N[C@@H](CC(C)C)C(=O)N[C@@H](CCCNC(=N)N)C(=O)N3CCC[C@H]3C(=O)NCC(N)=O)C[C@]12C` [GnRH agonist-progesterone conjugate, [DLys^6]GnRH conjugated to 11α-hydroxyprogesterone 11-succinate at the ε amine group of the D-Lys at position 6], for which the values for the EC50 (on rat type I GnRHR; in series [4]) were 0.52 nM and 0.29 nM, respectively. Further, the IC50 in series [1] came out at 0.29 nM; in series [2] it was 1200 nM. Also, in series [3], the “second phase half-life (metabolism and renal clearance)” value amounted to 53 ± 13 min.
